Read-outs that look alike come from different tables or passages of the source.
Test system: MDA-MB-231
Test: Cell viability (CellTiter-Blue, 72 h), MDA-MB-231 breast cancer cells
Type: cell-based
Details: for IC50: Homo sapiens; for effect (but only 50% effect): extent of effect reached
Protocol: The cell lines tested in this Example were as follows. Breast cancer: MDA-MB-231; SK-BR3; and BT474. Liver cancer: HepG2.
The phytocannabinoids were tested alone and in various ratioed combinations in media containing final concentrations of 10% and 1% foetal bovine serum at 72 h for the breast and prostate cancer lines and 1% foetal bovine serum for the liver cancer line HepG2.
Each tumour cell line was maintained in vitro in RPMI 1640+10% heat inactivated FBS and 2 mM L-glutamine (growth media) at 37° C. in 5% CO2 and humidified conditions. The cells were harvested, washed, re-suspended into growth medium and counted. The cells were re-suspended into assay media (RPMI 1640+5% heat inactivated FBS+ and 2 mM L-glutamine) at 8×104-2×10^5 cells/ml (dependent upon cell type) and plated into the middle 240 wells of 384 well tissue culture plates (Corning CellBind, black-wall plates) 12.5 μl/well aliquots; 62.5 μl of growth media was aliquoted into the outer wells. There were 4 plates for each cell line. The plates were incubated overnight at 37° C., in 5% humidified CO2.
The phytocannabinoid test compounds were prepared in 100% DMSO vehicle at a stock concentration of 10 mM.
Starting with the 10 mM stock, the compounds were diluted to 125 μM in FBS-free growth media.
These were diluted in FBS-free growth media to 125 μM before serial dilution.
5 volumes of CBD 10 mM stock was added to 1 volume of the other agent (also at 10 mM) and 4 volumes of DMSO. This made a final concentration of 5 mM:1 mM. This was then diluted in FBS-free growth media so the top concentration of CBD would be 125 μM (before serial dilution). Each compound and compound combination stock was serially diluted in FBS-free growth media (containing 1.25% v/v DMSO) from 125 μM to 41.7, 13.89, 4.63, 1.54, 0.514, 0.171, 0.057 and 0.019 μM (1.25× final assay concentrations). Vehicle was prepared at equivalent dilutions in assay media. The top final concentration of compound in the assay was always 100 μM so CBD5:1CBG was 100 μM CBD and 20 μM CBG.
Taxotere SOC was prepared at a stock concentration of 1 mM in 100% DMSO. Taxotere was serially diluted from the stock solution into FBS-free growth media to 12.5 μM, then serially diluted in FBS-free growth media containing 1.25% DMSO to 4.17, 1.39, 0.46, 0.154, 0.051, 0.017, 0.006, 0.002 μM (1.25× final assay concentrations).
The plates were incubated for 72 h at 37° C. in 5% humidified CO2. To develop the plates, at 72 h, 10 μl of CellTiter-Blue™ reagent was added to each test/blank well. The plates were incubated at 37° C., 5% humidified CO2. Fluorescence was measured using a Flex II Station plate reader (570 nm excitation wavelength, 600 nm emission wavelength, 590 nm cut-off) after 3 h.
The experimental conditions were the same as the experiment above, with the same compound dilutions and volumes for plating but using growth media containing 10% FBS rather than FBS-free media.
The raw data values expressed in relative fluorescent units were normalised to the vehicle for each individual plate and any reduction in fluorescence indicated a decrease in viability.
The data were analysed in GraphPad PRISM using a non-linear sigmoidal plot with variable slope (asymmetric five point linear regression) and where possible an IC50 value for each single compound and combination was generated.
For the calculation, raw data values expressed in relative fluorescent units were normalised to the vehicle for each individual plate (set as 0%) and the reduction in fluorescence calculated as an increase in inhibition of viability.
The data was formatted in Excel for each assay plate so that the average effect at each concentration for each separate phytocannabinoid and each of the combinations could be determined.
The mean data at each concentration of CBD was imported into the analysis package Calcusyn. Calcusyn software was designed by M. Hayball and C.

[1] = MDA-MB-231, 72 h, read-out: IC50 values, MDA-MB-231, 1% FBS, 72 h
[2] = MDA-MB-231, 72 h, read-out: IC50 values, MDA-MB-231, 10% FBS, 72 h
[3] = MDA-MB-231, read-out: Dm (median effect dose), MDA-MB-231, 1% FBS, Calcusyn median-effect analysis

SMILES	IC50 [1] [µM]	IC50 [2] [µM]	effect (but only 50% effect) (MDA-MB-231, 1% FBS)	effect (but only 50% effect) (MDA-MB-231, 10% FBS)	IC50 [3] [µM]	IC50 values (MDA-MB-231, 10% FBS, 72 h)
CC(=O)O[C@@]12CO[C@@H]1C[C@H](O)[C@@]1(C)C(=O)[C@H](O)C3=C(C)[C@@H](OC(=O)[C@H](O)[C@@H](NC(=O)OC(C)(C)C)c4ccccc4)C[C@@](O)([C@@H](OC(=O)c4ccccc4)[C@H]21)C3(C)C [Taxotere, Docetaxel, reference compound]	< 0.001	< 0.001	only 50%	only 50%		
CCCc1cc(O)c2c(c1)OC(C)(C)[C@@H]1CCC(C)=C[C@@H]21 [THCV, Tetrahydrocannabivarin]	14.4	36			39	
CCCCCc1cc(O)c(C/C=C(\C)CCC=C(C)C)c(O)c1C(=O)O [CBGA, Cannabigerolic acid]	16	~100			43.5	
C=C(C)[C@@H]1CCC(C)=C[C@H]1c1c(O)cc(CCCCC)c(C(=O)O)c1O [CBDA, Cannabidiolic acid]	30				20	NE at 100 μM
C=C(C)[C@@H]1CCC(C)=C[C@H]1c1c(O)cc(CCCCC)cc1O [CBD, Cannabidiol]	7.4	27			5.61	
CCCCCc1cc(O)c(C/C=C(\C)CCC=C(C)C)c(O)c1 [CBG, Cannabigerol]	4.1	29			14.2	
